{"source": "patent US9908895B2", "about": "“Tricyclic fused thiophene derivatives as JAK inhibitors” (Incyte Corporation, priority 2012, dated 2018)", "data": [{"system": "human JAK1", "assay": "In vitro JAK kinase assay (HTRF), JAK1", "assay_type": "biochemical", "conditions": "ratio of JAK2 IC50 to JAK1 IC50 at 1 mM ATP", "experimental": "Compounds herein were tested for inhibitory activity of JAK targets according to the following in vitro assay described in Park et al., Analytical Biochemistry 1999, 269, 94-104. The catalytic domains of human JAK1 (a.a. 837-1142), JAK2 (a.a. 828-1132) and JAK3 (a.a. 781-1124) were expressed using baculovirus in insect cells and purified. The catalytic activity of JAK1, JAK2 or JAK3 was assayed by measuring the phosphorylation of a biotinylated peptide. The phosphorylated peptide was detected by homogenous time resolved fluorescence (HTRF). IC50s of compounds were measured for each kinase in the 40 μL reactions that contain the enzyme, ATP and 500 nM peptide in 50 mM Tris (pH 7.8) buffer with 100 mM NaCl, 5 mM DTT, and 0.1 mg/mL (0.01%) BSA. For the 1 mM IC50 measurements, ATP concentration in the reactions was 1 mM. Reactions were carried out at room temperature for 1 hour and then stopped with 20 μL 45 mM EDTA, 300 nM SA-APC, 6 nM Eu-Py20 in assay buffer (Perkin Elmer, Boston, Mass.). Binding to the Europium labeled antibody took place for 40 minutes and HTRF signal was measured on a PHERA star plate reader (BMG, Cary, N.C.). The Example compounds were each tested in the Example A assay (see Table 1 for data for the compounds of the examples as tested by the assay of Example A at 1 mM ATP).", "values": [{"compound": "C[C@@H](O)c1nc2cnc3ccsc3c2n1[C@H]1CCN(CCC#N)C1", "note": "[Example 62, 3-((3S)-3-{2-[(1R)-1-Hydroxyethyl]-1H-imidazo[4,5-d]thieno[3,2-b]pyridin-1-yl}pyrrolidin-1-yl)propanenitrile]", "JAK2/JAK1": ">10"}, {"compound": "C[C@@H](O)c1nc2cnc3ccsc3c2n1[C@H]1CCC(CO)OC1", "note": "(stereo partly drawn) [Example 19, (1R)-1-{1-[(3S)-6-(Hydroxymethyl)tetrahydro-2H-pyran-3-yl]-1H-imidazo[4,5-d]thieno[3,2-b]pyridin-2-yl}ethanol]", "JAK2/JAK1": ">10"}, {"compound": "N#CC[C@H]1CC[C@H](n2c(CO)nc3cnc4ccsc4c32)CC1", "note": "[Example 17, {trans-4-[2-(Hydroxymethyl)-1H-imidazo[4,5-d]thieno[3,2-b]pyridin-1-yl]cyclohexyl}acetonitrile]", "JAK2/JAK1": ">10"}, {"compound": "CCc1nc2cnc3ccsc3c2n1[C@H]1CC[C@H](CC#N)CC1", "note": "[Example 47, [trans-4-(2-Ethyl-1H-imidazo[4,5-d]thieno[3,2-b]pyridin-1-yl)cyclohexyl]acetonitrile]", "JAK2/JAK1": ">10"}, {"compound": "CC(N)c1nc2cnc3ccsc3c2n1[C@H]1CC[C@H](CC#N)OC1.O=C(O)C(F)(F)F", "note": "(stereo partly drawn) [Example 68, {(2R,5S)-5-[2-(1-Aminoethyl)-1H-imidazo[4,5-d]thieno[3,2-b]pyridin-1-yl]tetrahydro-2H-pyran-2-yl}acetonitrile trifluoroacetate]", "JAK2/JAK1": ">10"}, {"compound": "C[C@@H](O)c1nc2cnc3ccsc3c2n1C1CCN(CC(F)(F)F)CC1", "note": "[Example 15, (1R)-1-{1-[1-(2,2,2-Trifluoroethyl)piperidin-4-yl]-1H-imidazo[4,5-d]thieno[3,2-b]pyridin-2-yl}ethanol]", "JAK2/JAK1": ">9"}, {"compound": "C[C@@H](O)c1nc2cnc3ccsc3c2n1[C@H]1CC[C@H](NCC(F)(F)F)CC1", "note": "[Example 4, (1R)-1-(1-{trans-4-[(2,2,2-Trifluoroethyl)amino]cyclohexyl}-1H-imidazo[4,5-d]thieno[3,2-b]pyridin-2-yl)ethanol]", "JAK2/JAK1": ">10"}, {"compound": "CS(=O)(=O)NCc1nc2cnc3ccsc3c2n1[C@H]1CC[C@H](CC#N)CC1", "note": "[Example 18, N-({1-[trans-4-(Cyanomethyl)cyclohexyl]-1H-imidazo[4,5-d]thieno[3,2-b]pyridin-2-yl}methyl)methanesulfonamide]", "JAK2/JAK1": ">10"}, {"compound": "((1R,2R,4S)-2-Hydroxy-4-{2-[(1R)-1-hydroxyethyl]-1H-imidazo[4,5-d]thieno[3,2-b]pyridin-1-yl}cyclohexyl)acetonitrile and ((1S,2S,4R)-2-hydroxy-4-{2-[(1R)-1-hydroxyethyl]-1H-imidazo[4,5-d]thieno[3,2-b]pyridin-1-yl}cyclohexyl)acetonitrile [36 (first peak)]", "JAK2/JAK1": ">10"}, {"compound": "N#CCc1nc2cnc3ccsc3c2n1[C@H]1CC[C@H](CC#N)OC1", "note": "[Example 73, {(2R,5S)-5-[2-(Cyanomethyl)-1H-imidazo[4,5-d]thieno[3,2-b]pyridin-1-yl]tetrahydro-2H-pyran-2-yl}acetonitrile]", "JAK2/JAK1": ">10"}, {"compound": "C[C@@H](O)c1nc2cnc3ccsc3c2n1[C@H]1CC[C@@H](C#N)CC1", "note": "[Example 7, cis-4-{2-[(1R)-1-Hydroxyethyl]-1H-imidazo[4,5-d]thieno[3,2-b]pyridin-1-yl}cyclohexanecarbonitrile]", "JAK2/JAK1": ">10"}, {"compound": "CC(C)OC(=O)NC[C@H]1CC[C@H](n2c([C@@H](C)O)nc3cnc4ccsc4c32)CC1", "note": "[Example 84, Isopropyl [(trans-4-{2-[(1R)-1-hydroxyethyl]-1H-imidazo[4,5-d]thieno[3,2-b]pyridin-1-yl}cyclohexyl)methyl]carbamate]", "JAK2/JAK1": ">10"}, {"compound": "C[C@@H](O)c1nc2cnc3ccsc3c2n1[C@H]1CC[C@@H](CC#N)OC1", "note": "[Example 21, ((2S,5S)-5-{2-[(1R)-1-Hydroxyethyl]-1H-imidazo[4,5-d]thieno[3,2-b]pyridin-1-yl}tetrahydro-2H-pyran-2-yl)acetonitrile]", "JAK2/JAK1": ">10"}, {"compound": "C[C@@H](O)c1nc2cnc3ccsc3c2n1[C@H]1CC[C@H](CCC#N)CC1", "note": "[Example 8, 3-(trans-4-{2-[(1R)-1-Hydroxyethyl]-1H-imidazo[4,5-d]thieno[3,2-b]pyridin-1-yl}cyclohexyl)propanenitrile]", "JAK2/JAK1": ">10"}, {"compound": "N#CC[C@H]1CC[C@H](n2c(C3CNC3)nc3cnc4ccsc4c32)CC1", "note": "[Example 28, [trans-4-(2-Azetidin-3-yl-1H-imidazo[4,5-d]thieno[3,2-b]pyridin-1-yl)cyclohexyl]acetonitrile]", "JAK2/JAK1": ">7"}, {"compound": "N#CC[C@H]1CC[C@H](n2/c(=N/C#N)[nH]c3cnc4ccsc4c32)CC1.O=C(O)C(F)(F)F", "note": "[Example 25, {(2E)-1-[trans-4-(Cyanomethyl)cyclohexyl]-1,3-dihydro-2H-imidazo[4,5-d]thieno[3,2-b]pyridin-2-ylidene}cyanamide trifluoroacetate]", "JAK2/JAK1": ">6"}, {"compound": "C[C@@H](O)c1nc2cnc3ccsc3c2n1[C@H]1CCN(CCCC#N)C1", "note": "[Example 65, 4-((3S)-3-{2-[(1R)-1-Hydroxyethyl]-1H-imidazo[4,5-d]thieno[3,2-b]pyridin-1-yl}pyrrolidin-1-yl)butanenitrile]", "JAK2/JAK1": ">10"}, {"compound": "C[C@@H](O)c1nc2cnc3ccsc3c2n1[C@H]1CC[C@H](CNS(C)(=O)=O)OC1", "note": "[Example 75, N-[((2R,5S)-5-{2-[(1R)-1-Hydroxyethyl]-1H-imidazo[4,5-d]thieno[3,2-b]pyridin-1-yl}tetrahydro-2H-pyran-2-yl)methyl]methanesulfonamide]", "JAK2/JAK1": ">10"}, {"compound": "C[C@@H](O)c1nc2cnc3ccsc3c2n1[C@H]1CCCN(C(=O)CCC#N)C1", "note": "[Example 58, 4-((3S)-3-{2-[(1R)-1-Hydroxyethyl]-1H-imidazo[4,5-d]thieno[3,2-b]pyridin-1-yl}piperidin-1-yl)-4-oxobutanenitrile]", "JAK2/JAK1": ">10"}, {"compound": "CC(=O)NC(C)c1nc2cnc3ccsc3c2n1[C@H]1CC[C@H](CC#N)OC1", "note": "(stereo partly drawn) [Example 69, N-(1-{1-[(3S,6R)-6-(Cyanomethyl)tetrahydro-2H-pyran-3-yl]-1H-imidazo[4,5-d]thieno[3,2-b]pyridin-2-yl}ethyl)acetamide]", "JAK2/JAK1": ">10"}, {"compound": "N#CCc1nc2cnc3ccsc3c2n1[C@H]1CC[C@@H](CC#N)OC1", "note": "[Example 74, {(2S,5S)-5-[2-(Cyanomethyl)-1H-imidazo[4,5-d]thieno[3,2-b]pyridin-1-yl]tetrahydro-2H-pyran-2-yl}acetonitrile]", "JAK2/JAK1": ">10"}, {"compound": "CNC(C)c1nc2cnc3ccsc3c2n1[C@H]1CC[C@H](CC#N)OC1", "note": "(stereo partly drawn) [Example 70, ((2R,5S)-5-{2-[1-(Methylamino)ethyl]-1H-imidazo[4,5-d]thieno[3,2-b]pyridin-1-yl}tetrahydro-2H-pyran-2-yl)acetonitrile]", "JAK2/JAK1": ">10"}, {"compound": "CC(CC(=O)N1CCC[C@H](n2c([C@@H](C)O)nc3cnc4ccsc4c32)C1)c1ccccc1", "note": "(stereo partly drawn) [Example 55, (1R)-1-{1-[(3S)-1-(3-Phenylbutanoyl)piperidin-3-yl]-1H-imidazo[4,5-d]thieno[3,2-b]pyridin-2-yl}ethanol]", "JAK2/JAK1": ">10"}, {"compound": "CN1CC(c2nc3cnc4ccsc4c3n2[C@H]2CC[C@H](CC#N)CC2)C1", "note": "[Example 29, {trans-4-[2-(1-Methylazetidin-3-yl)-1H-imidazo[4,5-d]thieno[3,2-b]pyridin-1-yl]cyclohexyl}acetonitrile]", "JAK2/JAK1": ">9"}, {"compound": "C[C@@H](O)c1nc2cnc3ccsc3c2n1[C@H]1CCCN(CCC#N)C1", "note": "[Example 56, 3-((3S)-3-{2-[(1R)-1-Hydroxyethyl]-1H-imidazo[4,5-d]thieno[3,2-b]pyridin-1-yl}piperidin-1-yl)propanenitrile]", "JAK2/JAK1": ">10"}, {"compound": "C[C@@H](O)c1nc2cnc3ccsc3c2n1[C@H]1CCCN(C(=O)CCc2cccnc2)C1", "note": "[Example 54, (1R)-1-{1-[(3S)-1-(3-Pyridin-3-ylpropanoyl)piperidin-3-yl]-1H-imidazo[4,5-d]thieno[3,2-b]pyridin-2-yl}ethanol]", "JAK2/JAK1": ">10"}, {"compound": "C[C@@H](O)c1nc2cnc3ccsc3c2n1C1CCC(NCCC#N)CC1", "note": "(single isomer, unassigned) [30 (second peak)]", "JAK2/JAK1": ">10"}, {"compound": "C[C@@H](O)c1nc2cnc3ccsc3c2n1[C@H]1CCCN(C(=O)CCc2cn[nH]c2)C1", "note": "[Example 53, (1R)-1-(1-{(3S)-1-[3-(1H-Pyrazol-4-yl)propanoyl]piperidin-3-yl}-1H-imidazo[4,5-d]thieno[3,2-b]pyridin-2-yl)ethanol]", "JAK2/JAK1": ">10"}, {"compound": "C[C@@H](O)c1nc2cnc3ccsc3c2n1[C@H]1CCCN(C(=O)CC#N)C1.O=C(O)C(F)(F)F", "note": "[Example 51, 3-((3S)-3-{2-[(1R)-1-Hydroxyethyl]-1H-imidazo[4,5-d]thieno[3,2-b]pyridin-1-yl}piperidin-1-yl)-3-oxopropanenitrile trifluoroacetate]", "JAK2/JAK1": ">10"}, {"compound": "C[C@@H](O)c1nc2cnc3ccsc3c2n1[C@H]1CCN(CCCC(F)(F)F)C1", "note": "[Example 64, (1R)-1-{1-[(3S)-1-(4,4,4-Trifluorobutyl)pyrrolidin-3-yl]-1H-imidazo[4,5-d]thieno[3,2-b]pyridin-2-yl}ethanol]", "JAK2/JAK1": ">10"}, {"compound": "CS(=O)(=O)NCc1nc2cnc3ccsc3c2n1[C@H]1CC2CCC1C2", "note": "(stereo partly drawn) [Example 22, N-((1-((2S)-Bicyclo[2.2.1]heptan-2-yl)-1H-imidazo[4,5-d]thieno[3,2-b]pyridin-2-yl)methyl)methanesulfonamide]", "JAK2/JAK1": ">4"}]}]}
